In US10758534B2 (Vertex Pharmaceuticals Incorporated, priority 2014, dated 2020):

Biological target: T1, F508del (Homo sapiens, UniProt P13569, DEL508-508)
T1 construct: expressed in transfected cells
Experiment: Protocol 1: membrane potential optical assay (FLIPR III, voltage sensing dye), identification of potentiator compounds
Type: cell-based
Details: Table 3, compounds of Table 1
In short: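 NIH3T3 F508del cells, 27° C × 24 hrs; compound/DMSO pretreat → redistribution dye load → single forskolin addition with Cl⁻ gradient (gluconate-substituted bath, HEPES pH 7.4). FLIPR III membrane-potential fluorescence read.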

T1 sequence (P13569 with tags, fused parts or gaps DEL508-508): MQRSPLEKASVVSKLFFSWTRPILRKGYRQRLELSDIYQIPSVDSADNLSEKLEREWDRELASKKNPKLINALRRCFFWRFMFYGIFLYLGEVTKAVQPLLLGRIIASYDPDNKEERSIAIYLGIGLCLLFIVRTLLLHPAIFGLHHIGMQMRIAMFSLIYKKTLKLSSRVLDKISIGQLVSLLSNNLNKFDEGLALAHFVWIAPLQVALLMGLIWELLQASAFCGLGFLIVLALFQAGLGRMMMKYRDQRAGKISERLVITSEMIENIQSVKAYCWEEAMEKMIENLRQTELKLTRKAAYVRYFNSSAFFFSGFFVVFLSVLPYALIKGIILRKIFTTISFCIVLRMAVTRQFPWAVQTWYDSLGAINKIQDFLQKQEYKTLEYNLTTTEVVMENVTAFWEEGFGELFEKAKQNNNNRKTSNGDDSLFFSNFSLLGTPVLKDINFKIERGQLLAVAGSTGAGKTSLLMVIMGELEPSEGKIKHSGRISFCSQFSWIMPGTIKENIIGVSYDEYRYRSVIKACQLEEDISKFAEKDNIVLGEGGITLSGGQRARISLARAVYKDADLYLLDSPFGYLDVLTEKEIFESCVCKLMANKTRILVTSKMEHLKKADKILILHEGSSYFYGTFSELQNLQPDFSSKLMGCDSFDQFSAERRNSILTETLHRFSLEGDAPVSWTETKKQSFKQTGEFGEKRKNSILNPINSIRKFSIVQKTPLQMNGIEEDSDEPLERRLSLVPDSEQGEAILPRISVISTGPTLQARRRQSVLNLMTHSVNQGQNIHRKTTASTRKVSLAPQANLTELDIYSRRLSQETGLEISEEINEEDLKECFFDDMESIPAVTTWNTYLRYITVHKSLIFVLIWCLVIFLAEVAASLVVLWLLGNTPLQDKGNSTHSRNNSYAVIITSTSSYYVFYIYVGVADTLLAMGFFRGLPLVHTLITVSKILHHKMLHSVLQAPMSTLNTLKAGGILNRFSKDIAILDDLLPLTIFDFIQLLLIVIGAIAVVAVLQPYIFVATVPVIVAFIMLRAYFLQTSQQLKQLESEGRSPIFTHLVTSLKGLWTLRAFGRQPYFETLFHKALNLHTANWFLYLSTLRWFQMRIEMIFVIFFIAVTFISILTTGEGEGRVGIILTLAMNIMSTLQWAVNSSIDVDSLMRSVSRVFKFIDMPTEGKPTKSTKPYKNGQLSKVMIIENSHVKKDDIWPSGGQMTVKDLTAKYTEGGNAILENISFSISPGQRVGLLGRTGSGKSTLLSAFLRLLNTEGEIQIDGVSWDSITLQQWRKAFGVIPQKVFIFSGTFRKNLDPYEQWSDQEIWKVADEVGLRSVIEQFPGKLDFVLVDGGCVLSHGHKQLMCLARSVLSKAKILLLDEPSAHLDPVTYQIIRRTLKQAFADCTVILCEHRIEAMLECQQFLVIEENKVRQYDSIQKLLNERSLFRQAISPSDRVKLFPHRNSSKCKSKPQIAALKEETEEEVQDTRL

Compound: CC(C)Oc1ccc(-c2cnc(C(=O)NS(=O)(=O)c3cccc(N)n3)c(N3[C@H](C)CC[C@@H]3C)n2)cn1 [Compound 1651, N-[(6-amino-2-pyridyl)sulfonyl]-3-[(2S,5R)-2,5-dimethylpyrrolidin-1-yl]-5-(6-isopropoxy-3-pyridyl)pyrazine-2-carboxamide]
- EC30: ++ (“++” means between 3 uM and 10 uM)

Compound: CC(=O)Nc1cccc(S(=O)(=O)NC(=O)c2ccc(-c3cc(F)cc(OCC(C)C)c3)nc2N2C[C@@H](C)CC2(C)C)n1 [Compound 1652, N-[(6-acetamido-2-pyridyl)sulfonyl]-6-(3-fluoro-5-isobutoxy-phenyl)-2-[(4S)-2,2,4-trimethylpyrrolidin-1-yl]pyridine-3-carboxamide]
- EC30: +++ (“+++” means <3 uM)

Compound: Cc1cc(C)c(Cn2nc(C(C)(C)C)cc2C(=O)NS(=O)(=O)c2ccc(N)cc2)c(C)c1 [Compound 1653, N-(4-aminophenyl)sulfonyl-5-tert-butyl-2-[(2,4,6-trimethylphenyl)methyl]pyrazole-3-carboxamide]
- EC30: +++ (“+++” means <3 uM)

Compound: CC(C)COc1cc(F)cc(-c2ccc(C(=O)NS(=O)(=O)c3cccc(N)n3)c(OCCc3cccnc3)n2)c1 [Compound 1654, N-[(6-amino-2-pyridyl)sulfonyl]-6-(3-fluoro-5-isobutoxy-phenyl)-2-[2-(3-pyridyl)ethoxy]pyridine-3-carboxamide]
- EC30: +++ (“+++” means <3 uM)

Compound: CCOc1cccc2c1CN(Cc1ccc(C(C)C)cc1)C2(C)C(=O)NS(=O)(=O)c1cccc(F)n1 (stereo not shown) [Compound 1655, 4-ethoxy-N-[(6-fluoro-2-pyridyl)sulfonyl]-2-[(4-isopropylphenyl)methyl]-1-methyl-isoindoline-1-carboxamide]
- EC30: +++ (“+++” means <3 uM)

Compound: Cc1cc(OCC(C)C)nc(-c2ccc(C(=O)NS(=O)(=O)c3cccc(N)n3)c(N3C[C@@H](C)CC3(C)C)n2)c1 [Compound 1656, N-[(6-amino-2-pyridyl)sulfonyl]-6-(6-isobutoxy-4-methyl-2-pyridyl)-2-[(4S)-2,2,4-trimethylpyrrolidin-1-yl]pyridine-3-carboxamide]
- EC30: +++ (“+++” means <3 uM)

Compound: CC(C)COc1cc(F)cc(-c2ccc(C(=O)NS(=O)(=O)c3cccc(N)n3)c(N3CC4CCC3CC4)n2)c1 [Compound 1657, N-[(6-amino-2-pyridyl)sulfonyl]-2-(3-azabicyclo[2.2.2]octan-3-yl)-6-(3-fluoro-5-isobutoxy-phenyl)pyridine-3-carboxamide]
- EC30: +++ (“+++” means <3 uM)

Compound: CC1(C)CN(c2nccc(C(F)(F)F)c2C(=O)NS(=O)(=O)c2cccc(N)n2)C(C)(C)C1 [Compound 1658, N-[(6-amino-2-pyridyl)sulfonyl]-2-(2,2,4,4-tetramethylpyrrolidin-1-yl)-4-(trifluoromethyl)pyridine-3-carboxamide]
- EC30: ++ (“++” means between 3 uM and 10 uM)

Compound: Cc1ccc(OCC(C)C)nc1-c1ccc(C(=O)NS(=O)(=O)c2cccc(N)n2)c(N2CC(C)CC2(C)C)n1 (stereo not shown) [Compound 1659, N-[(6-amino-2-pyridyl)sulfonyl]-6-(6-isobutoxy-3-methyl-2-pyridyl)-2-(2,2,4-trimethylpyrrolidin-1-yl)pyridine-3-carboxamide]
- EC30: +++ (“+++” means <3 uM)

Compound: CC(C)Oc1ccc(-c2ccc(C(=O)NS(=O)(=O)c3cccnc3N)c(N3C[C@@H](C)CC3(C)C)n2)cn1 [Compound 1660, N-[(2-amino-3-pyridyl)sulfonyl]-6-(6-isopropoxy-3-pyridyl)-2-[(4S)-2,2,4-trimethylpyrrolidin-1-yl]pyridine-3-carboxamide]
- EC30: +++ (“+++” means <3 uM)

Compound: CC(C)COc1cc(F)cc(-c2ccc(C(=O)NS(=O)(=O)c3cccc(N)n3)c(OCC3CCCO3)n2)c1 (stereo not shown) [Compound 1661, N-[(6-amino-2-pyridyl)sulfonyl]-6-(3-fluoro-5-isobutoxy-phenyl)-2-(tetrahydrofuran-2-ylmethoxy)pyridine-3-carboxamide]
- EC30: +++ (“+++” means <3 uM)

Compound: CCOc1cccc2c1CN(Cc1ccc(OC(C)C)nc1)C2(C)C(=O)NS(=O)(=O)c1cccc(N)n1 (stereo not shown) [Compound 1662, N-[(6-amino-2-pyridyl)sulfonyl]-4-ethoxy-2-[(6-isopropoxy-3-pyridyl)methyl]-1-methyl-isoindoline-1-carboxamide]
- EC30: ++ (“++” means between 3 uM and 10 uM)

Compound: C[C@@H]1CN(c2nc(-c3cccc(OCC(C)(C)C)n3)ccc2C(=O)NS(=O)(=O)c2cccc(N)n2)C(C)(C)C1 [Compound 1663, N-[(6-amino-2-pyridyl)sulfonyl]-6-[6-(2,2-dimethylpropoxy)-2-pyridyl]-2-[(4S)-2,2,4-trimethylpyrrolidin-1-yl]pyridine-3-carboxamide]
- EC30: +++ (“+++” means <3 uM)

Compound: C[C@@H]1CN(c2nc(C3=CCC(C(F)(F)F)CC3)ccc2C(=O)NS(=O)(=O)c2cccc(N)n2)C(C)(C)C1 (stereo partly drawn) [Compound 1664, N-[(6-amino-2-pyridyl)sulfonyl]-6-[4-(trifluoromethyl)cyclohexen-1-yl]-2-[(4S)-2,2,4-trimethylpyrrolidin-1-yl]pyridine-3-carboxamide]
- EC30: +++ (“+++” means <3 uM)

Compound: C[C@@H]1CN(c2nc(C(C)(C)C)c(/C=C/C3CC3)cc2C(=O)NS(=O)(=O)c2cccc(N)n2)C(C)(C)C1 [Compound 1665, N-[(6-amino-2-pyridyl)sulfonyl]-6-tert-butyl-5-[(E)-2-cyclopropylvinyl]-2-[(4S)-2,2,4-trimethylpyrrolidin-1-yl]pyridine-3-carboxamide]
- EC30: +++ (“+++” means <3 uM)

Compound: CCOc1cccc2c1CN(Cc1c(C)cc(C)cc1C)C2(C)C(=O)NS(=O)(=O)c1cccc2[nH]ccc12 (stereo not shown) [Compound 1666, 4-ethoxy-N-(1H-indol-4-ylsulfonyl)-1-methyl-2-[(2,4,6-trimethylphenyl)methyl]isoindoline-1-carboxamide]
- EC30: +++ (“+++” means <3 uM)

Compound: CC(C)COc1cc(F)cc(-c2ccc(C(=O)NS(=O)(=O)c3cccc(N)n3)c(C3=CCC(C(F)(F)F)CC3)n2)c1 (stereo not shown) [Compound 1667, N-[(6-amino-2-pyridyl)sulfonyl]-6-(3-fluoro-5-isobutoxy-phenyl)-2-[4-(trifluoromethyl)cyclohexen-1-yl]pyridine-3-carboxamide]
- EC30: ++ (“++” means between 3 uM and 10 uM)

Compound: CC(C)COc1cc(F)cc(-c2ccc(C(=O)NS(=O)(=O)c3cccc(N)n3)c(OCC3(C)CC3)n2)c1 [Compound 1668, N-[(6-amino-2-pyridyl)sulfonyl]-6-(3-fluoro-5-isobutoxy-phenyl)-2-[(1-methylcyclopropyl)methoxy]pyridine-3-carboxamide]
- EC30: +++ (“+++” means <3 uM)

Compound: CCOc1cccc2c1CN(Cc1c(C)cc(C)cc1C)C2(C)C(=O)NS(=O)(=O)c1cccnc1 (stereo not shown) [Compound 1669, 4-ethoxy-1-methyl-N-(3-pyridylsulfonyl)-2-[(2,4,6-trimethylphenyl)methyl]isoindoline-1-carboxamide]
- EC30: +++ (“+++” means <3 uM)

Compound: Cc1cc(C)c(Cn2nc(C(C)(C)C)cc2C(=O)NS(=O)(=O)c2ccc(CN)cc2)c(C)c1 [Compound 1670, N-[4-(aminomethyl)phenyl]sulfonyl-5-tert-butyl-2-[(2,4,6-trimethylphenyl)methyl]pyrazole-3-carboxamide]
- EC30: ++ (“++” means between 3 uM and 10 uM)

Compound: Cc1cc(OC(C)C)cc(-c2ccc(C(=O)NS(=O)(=O)c3cccc(N)n3)c(N3C[C@@H](C)CC3(C)C)n2)c1 [Compound 1671, N-[(6-amino-2-pyridyl)sulfonyl]-6-(3-isopropoxy-5-methyl-phenyl)-2-[(4S)-2,2,4-trimethylpyrrolidin-1-yl]pyridine-3-carboxamide]
- EC30: +++ (“+++” means <3 uM)

Compound: C[C@@H]1CN(c2nc(C3CCC(C(F)(F)F)CC3)ccc2C(=O)NS(=O)(=O)c2cccc(N)n2)C(C)(C)C1 (stereo partly drawn) [Compound 1672, N-[(6-amino-2-pyridyl)sulfonyl]-6-[4-(trifluoromethyl)cyclohexyl]-2-[(4S)-2,2,4-trimethylpyrrolidin-1-yl]pyridine-3-carboxamide]
- EC30: +++ (“+++” means <3 uM)

Compound: C[C@@H]1CN(c2nc(N3C[C@@H](C)CC3(C)C)c(C(=O)NS(=O)(=O)c3cccc(N)n3)cc2F)C(C)(C)C1 [Compound 1673, N-[(6-amino-2-pyridyl)sulfonyl]-5-fluoro-2,6-bis[(4S)-2,2,4-trimethylpyrrolidin-1-yl]pyridine-3-carboxamide]
- EC30: +++ (“+++” means <3 uM)

Compound: CC(C)Oc1cc(-c2ccc(C(=O)NS(=O)(=O)c3cccc(N)n3)c(N3C[C@@H](C)CC3(C)C)n2)cc(C(F)(F)F)c1 [Compound 1674, N-[(6-amino-2-pyridyl)sulfonyl]-6-[3-isopropoxy-5-(trifluoromethyl)phenyl]-2-[(4S)-2,2,4-trimethylpyrrolidin-1-yl]pyridine-3-carboxamide]
- EC30: +++ (“+++” means <3 uM)

Compound: CC(C)COc1cc(F)cc(-c2ccc(C(=O)NS(=O)(=O)c3cccc(N)n3)c(N3CC(C)(C)OCC3(C)C)n2)c1 [Compound 1675, N-[(6-amino-2-pyridyl)sulfonyl]-6-(3-fluoro-5-isobutoxy-phenyl)-2-(2,2,5,5-tetramethylmorpholin-4-yl)pyridine-3-carboxamide]
- EC30: ++ (“++” means between 3 uM and 10 uM)

Compound: CCOc1cccc2c1CN(Cc1c(C)cccc1C)C2(C)C(=O)NS(=O)(=O)c1cccc(F)n1 (stereo not shown) [Compound 1676, 2-[(2,6-dimethylphenyl)methyl]-4-ethoxy-N-[(6-fluoro-2-pyridyl)sulfonyl]-1-methyl-isoindoline-1-carboxamide]
- EC30: +++ (“+++” means <3 uM)

Compound: C[C@@H]1CN(c2nc(CCC3CC3)ccc2C(=O)NS(=O)(=O)c2cccc(N)n2)C(C)(C)C1 [Compound 1677, N-[(6-amino-2-pyridyl)sulfonyl]-6-(2-cyclopropylethyl)-2-[(4S)-2,2,4-trimethylpyrrolidin-1-yl]pyridine-3-carboxamide]
- EC30: +++ (“+++” means <3 uM)

Compound: Cc1cccc(C)c1Cn1nc(-c2cnc(N(C)C)nc2)cc1C(=O)NS(=O)(=O)c1ccccc1 [Compound 1678, N-(benzenesulfonyl)-5-[2-(dimethylamino)pyrimidin-5-yl]-2-[(2,6-dimethylphenyl)methyl]pyrazole-3-carboxamide]
- EC30: + (“+” means greater than 10 uM)
